In patent US12398178B2, “Collections of peptides, peptide agents, and methods of use thereof” (Parabilis Medicines, Inc., priority 2018, dated 2025):
Starred links: 1 amine or outer side, 2 acyl side, 3 side chain; linkers in the order of their positions; H or OH if unused. Positions of bridges follow the written chain, without caps; N, C: chain ends. Residues, ends and D or L forms follow the SMILES beside them. Phenylene(1,4-NHCOCH2)2 = O=C(C[*:1])Nc1ccc(NC(=O)C[*:2])cc1; X4 = O=C(C[*:1])O[C@H]1CC[C@@H](OC(=O)C[*:2])CC1; X5 = CN(C(=O)C[*:1])c1ccc(N(C)C(=O)C[*:2])cc1; X6 = O=C(C[*:1])Nc1cc(Cl)c(NC(=O)C[*:2])cc1Cl; X7 = O=C(C[*:1])Nc1cc(F)c(NC(=O)C[*:2])cc1F

Experiment: Measurement of LogD (CHI logD by HPLC)
Type: physicochemical
Details: CHI log D, 50 mM ammonium acetate pH 7.4 / acetonitrile gradient, C-18 column, 25° C.
Procedure: Measurement of LogD: LogD values were measured on a Agilent 1260 HPLC with UV detector (254, 220 nm), using a Gemini NX C-18 50×3 mm column (Phenomenex) with a 6-minute 0-100% mobile phase gradient of A) 50 mM ammonium acetate pH 7.4 and B) Acetonitrile at 25° C. with a flow rate of 1 mL/min and injection volume of 3-5 uL.

chromatographic logD | Structure (SMILES)
0.63 | COc1cc2c(OC)cc1NC(=O)CSC[C@@H](C(=O)N[C@@H](CCC(=O)O)C(=O)N[C@@H](CC(C)C)C(=O)N[C@H](C(N)=O)C(C)C)NC(=O)[C@H](Cc1c[nH]cn1)NC(=O)[C@H](CC(C)C)NC(=O)[C@H](C)NC(=O)[C@H](C)NC(=O)[C@H](Cc1c[nH]c3ccccc13)NC(=O)[C@H](CCC(=O)O)NC(=O)[C@@H](NC(=O)[C@H](CCCNC(=N)N)NC(=O)[C@H](Cc1c[nH]cn1)NC(=O)[C@@H](NC(=O)[C@H](C)NC(=O)[C@@H]1CCCN1C(=O)[C@H](CC(=O)O)NC(=O)[C@H](C)N)[C@@H](C)O)CSCC(=O)N2 [Compound 34]
0.73 | CC[C@H](C)[C@@H]1NC(=O)[C@H](CC(C)C)NC(=O)[C@H](C)NC(=O)[C@H](C)NC(=O)[C@H](Cc2c[nH]cn2)NC(=O)[C@H](CCC(=O)O)NC(=O)[C@@H](NC(=O)[C@H](C)NC(=O)[C@H](Cc2c[nH]c3ccccc23)NC(=O)[C@H](CC(C)C)NC(=O)[C@H](C)NC(=O)[C@@H]2CCCN2C(=O)[C@H](CC(=O)O)NC(=O)[C@H](C)N)CSCC(=O)N(C)c2ccc(cc2)N(C)C(=O)CSC[C@@H](C(=O)N[C@@H](CCC(=O)O)C(=O)N[C@H](C(=O)N[C@@H](CCC(N)=O)C(N)=O)[C@@H](C)O)NC1=O [Compound 40] (H-ADPALWACEHAALICETQ-NH2; linker 8-15 via X5; N-terminus and C-terminus assumed)
0.62 | CC[C@H](C)[C@@H]1NC(=O)[C@H](CC(C)C)NC(=O)[C@H](C)NC(=O)[C@H](C)NC(=O)[C@H](Cc2c[nH]cn2)NC(=O)[C@H](CCC(=O)O)NC(=O)[C@@H](NC(=O)[C@H](C)NC(=O)[C@H](Cc2c[nH]c3ccccc23)NC(=O)[C@H](CC(C)C)NC(=O)[C@H](C)NC(=O)[C@@H]2CCCN2C(=O)[C@H](CC(=O)O)NC(=O)[C@H](C)N)CSCC(=O)Nc2ccc(cc2)NC(=O)CSC[C@@H](C(=O)N[C@@H](CCC(=O)O)C(=O)N[C@H](C(=O)N[C@@H](CCC(N)=O)C(N)=O)[C@@H](C)O)NC1=O [Compound 2] (H-ADPALWACEHAALICETQ-NH2; linker 8-15 via Phenylene(1,4-NHCOCH2)2; N-terminus and C-terminus assumed)
0.8 | CC[C@H](C)[C@@H]1NC(=O)[C@H](CC(C)C)NC(=O)[C@H](C)NC(=O)[C@H](C)NC(=O)[C@H](Cc2c[nH]cn2)NC(=O)[C@H](CCC(=O)O)NC(=O)[C@@H](NC(=O)[C@H](CC(C)C)NC(=O)[C@H](Cc2c[nH]c3ccccc23)NC(=O)[C@H](Cc2ccc(O)cc2)NC(=O)[C@H](C)NC(=O)[C@@H]2CCCN2C(=O)[C@H](CC(=O)O)NC(=O)[C@H](C)N)CSCC(=O)Nc2ccc(cc2)NC(=O)CSC[C@@H](C(=O)N[C@@H](CCC(=O)O)C(=O)N[C@H](C(=O)N[C@@H](CCC(=O)O)C(N)=O)C(C)C)NC1=O [Compound 13] (H-ADPAYWLCEHAALICEVE-NH2; linker 8-15 via Phenylene(1,4-NHCOCH2)2; N-terminus and C-terminus assumed)
0.29 | CC[C@H](C)[C@@H]1NC(=O)[C@@H](NC(=O)[C@H](CC(=O)O)NC(=O)[C@H](CCC(=O)O)NC(=O)[C@H](CC(=O)O)NC(=O)[C@H](C)NC(=O)[C@@H]2CCCN2C(=O)[C@H](CC(=O)O)NC(=O)[C@H](C)N)CSCC(=O)Nc2ccc(cc2)NC(=O)CSC[C@@H](C(=O)N[C@@H](CCC(N)=O)C(=O)N[C@@H](Cc2c[nH]c3ccccc23)C(=O)N[C@@H](CC(=O)O)C(N)=O)NC(=O)[C@H]([C@@H](C)CC)NC(=O)[C@H](Cc2c[nH]cn2)NC(=O)[C@H](C)NC(=O)[C@H](C)NC(=O)[C@H](CC(C)C)NC1=O [Compound 9] (H-ADPADEDCILAAHICQWD-NH2; linker 8-15 via Phenylene(1,4-NHCOCH2)2; N-terminus and C-terminus assumed)
0.47 | CC(C)C[C@@H]1NC(=O)[C@H](C)NC(=O)[C@H](C)NC(=O)[C@H](Cc2c[nH]cn2)NC(=O)[C@H](CCC(=O)O)NC(=O)[C@@H](NC(=O)[C@H](CCC(N)=O)NC(=O)[C@H](Cc2c[nH]c3ccccc23)NC(=O)[C@@H]2CCCN2C(=O)[C@H](C)NC(=O)[C@@H]2CCCN2C(=O)[C@H](CC(=O)O)NC(=O)[C@H](C)N)CSCC(=O)Nc2ccc(cc2)NC(=O)CSC[C@@H](C(=O)N[C@@H](CCC(=O)O)C(=O)N[C@@H](CC(C)C)C(=O)N[C@@H](CCC(=O)O)C(N)=O)NC(=O)[C@H](CC(C)C)NC1=O [Compound 11] (H-ADPAPWQCEHAALLCELE-NH2; linker 8-15 via Phenylene(1,4-NHCOCH2)2; N-terminus and C-terminus assumed)
0.39 | CC[C@H](C)[C@@H]1NC(=O)[C@H](CC(C)C)NC(=O)[C@H](C)NC(=O)[C@H](C)NC(=O)[C@H](Cc2c[nH]cn2)NC(=O)[C@H](CCC(=O)O)NC(=O)[C@@H](NC(=O)[C@H](Cc2c[nH]cn2)NC(=O)[C@H](Cc2c[nH]c3ccccc23)NC(=O)[C@H](CCC(N)=O)NC(=O)[C@H](C)NC(=O)[C@@H]2CCCN2C(=O)[C@H](CC(=O)O)NC(=O)[C@H](C)N)CSCC(=O)Nc2ccc(cc2)NC(=O)CSC[C@@H](C(=O)N[C@@H](CCC(=O)O)C(=O)N[C@@H](CC(C)C)C(=O)N[C@@H](CC(=O)O)C(N)=O)NC1=O [Compound 10] (H-ADPAQWHCEHAALICELD-NH2; linker 8-15 via Phenylene(1,4-NHCOCH2)2; N-terminus and C-terminus assumed)
0.73 | CC[C@H](C)[C@@H]1NC(=O)[C@H](CC(C)C)NC(=O)[C@H](C)NC(=O)[C@H](C)NC(=O)[C@H](Cc2c[nH]cn2)NC(=O)[C@H](CCC(=O)O)NC(=O)[C@@H](NC(=O)[C@H](C)NC(=O)[C@H](Cc2c[nH]c3ccccc23)NC(=O)[C@H](CC(C)C)NC(=O)[C@H](C)NC(=O)[C@@H]2CCCN2C(=O)[C@H](CC(=O)O)NC(=O)[C@H](C)N)CSCC(=O)Nc2cc(F)c(cc2F)NC(=O)CSC[C@@H](C(=O)N[C@@H](CCC(=O)O)C(=O)N[C@H](C(=O)N[C@@H](CCC(N)=O)C(N)=O)[C@@H](C)O)NC1=O [Compound 41] (H-ADPALWACEHAALICETQ-NH2; linker 8-15 via X7; N-terminus and C-terminus assumed)
0.92 | CC[C@H](C)[C@@H]1NC(=O)[C@@H](NC(=O)[C@H](CCC(=O)O)NC(=O)[C@H](CC(=O)O)NC(=O)[C@H](CCC(=O)O)NC(=O)[C@H](C)NC(=O)[C@@H]2CCCN2C(=O)[C@H](CC(=O)O)NC(=O)[C@H](C)N)CSCC(=O)Nc2ccc(cc2)NC(=O)CSC[C@@H](C(=O)N[C@@H](CCCNC(=N)N)C(=O)N[C@@H](Cc2c[nH]c3ccccc23)C(=O)N[C@@H](Cc2c[nH]c3ccccc23)C(N)=O)NC(=O)[C@H](CCSC)NC(=O)[C@H](Cc2c[nH]cn2)NC(=O)[C@H](C)NC(=O)[C@H](C)NC(=O)[C@H](CC(C)C)NC1=O [Compound 8] (H-ADPAEDECILAAHMCRWW-NH2; linker 8-15 via Phenylene(1,4-NHCOCH2)2; N-terminus and C-terminus assumed)
1.03 | CC[C@H](C)[C@@H]1NC(=O)[C@H](CC(C)C)NC(=O)[C@H](C)NC(=O)[C@H](C)NC(=O)[C@H](Cc2c[nH]cn2)NC(=O)[C@H](CCC(=O)O)NC(=O)[C@@H](NC(=O)[C@H](C)NC(=O)[C@H](Cc2c[nH]c3ccccc23)NC(=O)[C@H](CC(C)C)NC(=O)[C@H](C)NC(=O)[C@@H]2CCCN2C(=O)[C@H](CC(=O)O)NC(=O)[C@H](C)N)CSCC(=O)O[C@H]2CC[C@H](CC2)OC(=O)CSC[C@@H](C(=O)N[C@@H](CCC(=O)O)C(=O)N[C@H](C(=O)N[C@@H](CCC(N)=O)C(N)=O)[C@@H](C)O)NC1=O [Compound 45] (H-ADPALWACEHAALICETQ-NH2; linker 8-15 via X4; N-terminus and C-terminus assumed)
0.47 | CC[C@H](C)[C@H](NC(=O)[C@H](CCC(=O)O)NC(=O)[C@@H]1CSCC(=O)Nc2ccc(cc2)NC(=O)CSC[C@H](NC(=O)[C@@H]2CCCN2C(=O)[C@H](Cc2c[nH]c3ccccc23)NC(=O)[C@H](CCC(N)=O)NC(=O)[C@H](C)NC(=O)[C@@H]2CCCN2C(=O)[C@H](CC(=O)O)NC(=O)[C@H](C)N)C(=O)N[C@@H](CCC(=O)O)C(=O)N[C@@H](Cc2c[nH]cn2)C(=O)N[C@@H](C)C(=O)N[C@@H](C)C(=O)N[C@@H](CC(C)C)C(=O)N[C@@H](CC(C)C)C(=O)N1)C(=O)N[C@@H](CCC(=O)O)C(N)=O [Compound 14] (H-ADPAQWPCEHAALLCEIE-NH2; linker 8-15 via Phenylene(1,4-NHCOCH2)2; N-terminus and C-terminus assumed)

Structure (SMILES) | chromatographic logD
CC(C)C[C@@H]1NC(=O)[C@H](C)NC(=O)[C@H](C)NC(=O)[C@H](Cc2c[nH]c3ccccc23)NC(=O)[C@H](CCC(=O)O)NC(=O)[C@@H](NC(=O)[C@H](CCCNC(=N)N)NC(=O)[C@H](Cc2c[nH]cn2)NC(=O)[C@@H](NC(=O)[C@H](C)NC(=O)[C@@H]2CCCN2C(=O)[C@H](CC(=O)O)NC(=O)[C@H](C)N)[C@@H](C)O)CSCC(=O)Nc2cc(Cl)c(cc2Cl)NC(=O)CSC[C@@H](C(=O)N[C@@H](CCC(=O)O)C(=O)N[C@@H](CC(C)C)C(=O)N[C@H](C(N)=O)C(C)C)NC(=O)[C@H](Cc2c[nH]cn2)NC1=O [Compound 33] | 0.68
CC[C@H](C)[C@@H]1NC(=O)[C@H](CC(C)C)NC(=O)[C@H](C)NC(=O)[C@H](C)NC(=O)[C@H](Cc2c[nH]cn2)NC(=O)[C@H](CCC(=O)O)NC(=O)[C@@H](NC(=O)[C@H](C)NC(=O)[C@H](Cc2c[nH]c3ccccc23)NC(=O)[C@H](CC(C)C)NC(=O)[C@H](C)NC(=O)[C@@H]2CCCN2C(=O)[C@H](CC(=O)O)NC(=O)[C@H](C)N)CSCC(=O)Nc2cc(Cl)c(cc2Cl)NC(=O)CSC[C@@H](C(=O)N[C@@H](CCC(=O)O)C(=O)N[C@H](C(=O)N[C@@H](CCC(N)=O)C(N)=O)[C@@H](C)O)NC1=O [Compound 42] (H-ADPALWACEHAALICETQ-NH2; linker 8-15 via X6; N-terminus and C-terminus assumed) | 0.84
